Test results from patent US11685711B2, “Carbon monoxide-releasing molecules triggered by physiological stimuli” (Georgia State University Research Foundation, Inc., priority 2017, dated 2023).
Where two headings read alike, the source gives them in different places.

Tests used:
Raw 264.7 cells = experiment: Cytotoxicity against Raw 264.7 cells (Cell Counting Kit-8); type: cell-based; details: concentrations up to 50 μM, 24 h of incubation
Experimental: All CO prodrugs were initially screened for their cytotoxicity against Raw 264.7 cells. […] Then RAW 264.7 cells were incubated in DMEM containing 1% DMSO and compounds (0-50 μM) for 24 hours. Then 10 μL of Cell Counting Kit-8 solution was added to each well and incubated for another three hours at 37° C. The absorbance at […] was measured by using a microplate reader.

physchem = type: physicochemical
Experimental: A solution of 10/11 (20 μM) and NaClO (40 or 60 μM) in 10% of ACN in PBS (pH=7.4) was sealed and incubated at 37° C. At each defined time point, 500 μL of the reaction mixture was taken out and added into a vial containing Na2SO3 (100 μL, 250 mM) to quench the reaction. The resulting solution was then analyzed by HPLC (column: Waters C18 3.5 μM, 4.6×100 mm, injection loop volume: 20 μL). CO release was determined by monitoring the formation of the product and the consumption of the reaction intermediate as in the case of 10 or prodrug 11. The mobile phase was acetonitrile ACN/H2O (containing 0.05% trifluoroacetic acid).

Hela cells [1] = experiment: Crystal violet assay, co-treatment with doxorubicin; details: 24 h; for synergistic effects with Dox in killing Hela cells: co-treatment with Dox
Experimental: (§2) Towards this end, Hela cells and H9C2 cells were co-treated with 11/12 and Dox for 24 h. Then the cells were subjected to crystal violet assay for cytotoxicity evaluation. The cells treated with 11/12, or Dox only were used as controls. Additionally, the cells co-treated with Dox and compound 10a/11a/11b were employed as additional controls as well.
(§3) Hela cells and H9C2 cells were seeded in 96-well plates and cultured in DMEM supplemented with 10% FBS and 1% penicillin/streptomycin at 37° C. under 5% CO2 for 24 h. The cells were either incubated with doxorubicin (1% DMSO DMEM solution, 0 to 4 μM) or a mixture of doxorubicin and indicated compounds (1% DMSO DMEM solution, 0 to 4 μM for doxorubicin) for 24 h. After removal of the medium, the plate was washed with 150 μL/well of PBS and the cell was fixed with 4% paraformaldehyde for 1 h at room temperature. The solution in the well was then removed and 100 μL of 0.5% crystal violet staining solution was added to each well. After incubation for 15 min at room temperature, the plate was washed with 200 μL of DI water for each well twice, followed by the addition of 100 μL/well of acetic acid solution (33%) to dissolve the dye. Absorbance at 615 nm was then measured by using a Perkin Elmer 1420 multi-label counter. Cell viability was measured and the results were normalized to the vehicle group. The experiment was triplicated and the results are expressed as mean±SD (n=3).

Hela cells [2] = tested on: Hela cells
Experimental: as §2, §3

Hela cells [3] = experiment: Fluorescent imaging of CO release of 11 with COP-1; type: cell-based; details: 11 50 μM + COP-1 1 μM, 5 hours
Experimental: (§1) Hela or H9C2 cells were seeded in 6-well plates one day before the imaging experiment. Compound 11 was dissolved in DMSO as stock solution. Final concentrations of 1 μM for COP-1 and […] were added into the cell culture. The sample without 11 was used as the negative control. After adding the compound, the cells were incubated at 37° C. for 5 hours. The cells were then fixed and taken for fluorescent images under the FITC channel (excitation: 490 nm, emission: 525 nm) using a Zeiss fluorescent microscope.

H9C2 cells [4] = experiment: Fluorescent imaging of CO release of 11 with COP-1; type: cell-based; details: 11 50 μM + COP-1 1 μM
Experimental: as §1

[5] = Sensitivity of 11 to various ROS (HPLC, formation of 11a); type: physicochemical
Experimental: The CO release profiles in the absence/presence of ROS was studied using HPLC to monitor the consumption of 10/11 and the formation of 10a/11a. Various ROS solutions were prepared according to literature procedures. A solution of 11 (400 μL, 1 mM in acetonitrile (ACN) was added to 20 mL of PBS (pH 7.4, 10 mM). […] Additional ACN was added to make the final solution contain 10% of ACN. The resulting mixture was incubated at 37° C. for 30 min. CO release was monitored by the formation of 11a using HPLC. The experiment was triplicated, and the results are reported as mean±SD (n=3).

H9C2 cells [6] = experiment: Crystal violet assay, co-treatment with doxorubicin and cytotoxicity; type: cell-based
Experimental: as §2
Hela cells and H9C2 cells were seeded in 96-well plates and cultured in DMEM supplemented with 10% FBS and 1% penicillin/streptomycin at 37° C. under 5% CO2 for 24 h. The cells were either incubated with doxorubicin (1% DMSO DMEM solution, 0 to 4 μM) or a mixture of doxorubicin and indicated compounds (1% DMSO DMEM solution, 0 to 4 μM for doxorubicin) for 24 h. After removal of the medium, the plate was washed with 150 μL/well of PBS and the cell was fixed with 4% paraformaldehyde for 1 h at room temperature. The solution in the well was then removed and 100 μL of 0.5% crystal violet staining solution was added to each well. […] Absorbance at 615 nm was then measured by using a Perkin Elmer 1420 multi-label counter. Cell viability was measured and the results were normalized to the vehicle group. The experiment was triplicated and the results are expressed as mean±SD (n=3).

Raw264.7 cells = experiment: Fluorescent imaging of CO release of 11 with COP-1, with or without LPS; type: cell-based; details: Raw 264.7 cells, 11 50 μM + COP-1 1 μM + LPS 1 μg/mL, 5 hours
Experimental: For imaging studies of 11 in transformed macrophage cells, RAW 264.7 cells were seeded in 6-well plates one day before the imaging experiment. Compounds were dissolved in DMSO as stock solution. Final concentration of 1 μM COP-1, 50 μM of 11 and 1 μg/mL of LPS were added into the cell culture. The cells without 11 was used as the negative control. After adding the compound, the cells were incubated at 37° C. for 5 hours. The cells were then fixed and taken for fluorescent images under the FITC channel (excitation: 490 nm, emission: 525 nm) using a Zeiss fluorescent microscope.

[7] = Stability in the absence of ROS (HPLC); type: physicochemical
Experimental: Initially, 11 was employed to screen its sensitivity towards various ROS. […] The stability was tested by adding a solution of 11/12 (800 μL, 500 μM in acetonitrile) was added to 20 mL of PBS (pH 7.4, 10 mM) in a vial. Additional acetonitrile was added to make the final concentration of ACN 10% for all solutions. The resulting solution was incubated at 37° C. for 48 h. The solution was then analyzed using HPLC. All the experiments were triplicated, and the results are reported as mean±SD (n=3).

porcine liver esterase = experiment: CO release kinetics in the presence of porcine liver esterase (HPLC); type: in vitro ADME
Experimental: […] At each defined time point, 250 μL of the reaction mixture was taken out and added into a vial containing 500 μL ethanol. The mixture was incubated in an acetone dry ice bath (−78° C.) for 5 min, and centrifuged for 9 min (14.5×1000 rp) to precipitate the esterase out. The resulting supernatant was then analyzed by HPLC (column: Waters C18 3.5 μM, 4.6×100 mm, injection loop volume: 20 μL). […] The mobile phase was acetonitrile CH3CN/H2O (containing 0.05% trifluoroacetic acid).

[8] = CO release kinetics of 38 with or without H2O2 (HPLC); type: physicochemical; details: 20% of DMSO/PBS, 37° C., read-out: beta-elimination half-life (converted)
Experimental: Solutions of 38 (20 μM) in 20% of DMSO/PB S was incubated with or without H2O2 (270 μM) at 37° C. Aliquots were taken for HPLC analysis to determine CO release kinetics by monitoring the formation of compound 25. HPLC was conducted using a Waters C18 column (3.5 LM, 4.6x 100 mm) equipped with a 20-μL injection loop and acetonitrile:water (85:15) as the mobile phase.

With `C[C@@]12C(=O)[C@](C)(C(c3ccccc3)=C1c1ccccc1)C(S(=O)(=O)c1ccccc1)C2C=O` (stereo partly drawn) [Compound 7, (1S,4S)-1,4-dimethyl-7-oxo-5,6-diphenyl-3-(phenylsulfonyl)bicyclo-[2.2.1]hept-5-ene-2-carbaldehyde] the “cytotoxicity (cell viability)” value (Raw 264.7 cells) was “no cytotoxicity was observed”.
With `CC12CC([Se]c3ccccc3)C(C)(C1=O)C(c1ccccc1)=C2c1ccccc1` (stereo not drawn) [Compound 10, 1,4-dimethyl-2,3-diphenyl-5-(phenylselanyl)bicyclo[2.2.1]hept-2-en-7-one] the “half-life of selenoxide elimination / CO release” value (physchem; 20 µM, pH 7.4) was “around 4 h” and the “time to finish the oxidation step” value (physchem; initial hypochlorite concentration of 40 μM, 37° C.) was 30 s.
In the case of `Cc1ccc(C)c(-c2ccccc2)c1-c1ccccc1` [Compound 10a, 3′,6′-Dimethyl-1,1′:2′,1″-terphenyl], the “synergistic effects with Dox in killing Hela cells” value (Hela cells [1]; Hela cells) was “no synergistic effects were observed”.
For `COC(=O)C1([Se]c2ccccc2)CC2(C)C(=O)C1(C)C(c1ccccc1)=C2c1ccccc1` (stereo not drawn) [Compound 11, Methyl-1,4-dimethyl-7-oxo-5,6-diphenyl-2-(phenylselanyl)bicyclo[2.2.1]hept-5-ene-2-carboxylate], the “cell viability, compound only” value (Hela cells [2]) was “no decrease in cell viability was observed”, the half-life at 20 µM (physchem; pH 7.4) was roughly 0.5 min and the “intracellular CO release (green fluorescence) compared with H9C2 cells” value (Hela cells [3]) was “much enhanced green fluorescence”. The “intracellular CO release” value (H9C2 cells [4]) was “negligible CO release”, the “transformation within 30 min” value ([5]; hydrogen peroxide (H2O2, 1 mM), 37° C.) was “less than 5%” and the “transformation within 30 min” value ([5]; hydroxyl radical (HO., 500 μM), 37° C.) was “less than 5%”. For the same molecule, the “time to complete transformation from 11 to 11a” value ([5]; hypochlorite (40 μM) at 37° C.) was 30 min, the “sensitivity towards ROS” value ([5]; hypochlorite (ClO−), singlet oxygen (1O2) and O2−, 37° C.) was “very sensitive” and the “transformation within 30 min” value ([5]; tert-butoxy radical (tBuO·, 500 μM), 37° C.) was “less than 5%”. For the same molecule, the “transformation within 30 min” value ([5]; tert-butyl hydroperoxide (TBHP, 500 μM), 37° C.) was “less than 5%”, the “synergistic effects with Dox in killing H9C2 cells” value (H9C2 cells [6]; H9C2 cells, co-treatment with Dox, 24 h) was “no synergistic effects were observed” and the “intracellular CO release (green fluorescence) with LPS vs without LPS” value (Raw264.7 cells) was “significantly enhanced green fluorescence”. For the same molecule, the “formation of 11a” value ([7]; absence of hypochlorite, 48 h of incubation) was “no formation of 11a was observed” and the “synergistic effects with Dox in killing Hela cells” value (Hela cells [1]; Hela cells) was “synergistically”.
In the case of `COC(=O)c1cc(C)c(-c2ccccc2)c(-c2ccccc2)c1C` [Compound 11a, Methyl 3′,6′-dimethyl-[1,1′:2′,1″-terphenyl]-4′-carboxylate], the “synergistic effects with Dox in killing Hela cells” value (Hela cells [1]; Hela cells) was “no synergistic effects were observed”.
With `COC(=O)C1([Se]c2ccccc2)CC2(C)CC1(C)C(c1ccccc1)=C2c1ccccc1` (stereo not drawn) [Compound 11b, methyl 1,4-dimethyl-5,6-diphenyl-2-(phenylselanyl)bicyclo-[2.2.1]hept-5-ene-2-carboxylate, reference compound] the “synergistic effects with Dox in killing Hela cells” value (Hela cells [1]; Hela cells) was “no synergistic effects were observed”.
With `CC12CC([Se]c3ccccc3)(C(=O)NCCC[P+](c3ccccc3)(c3ccccc3)c3ccccc3)C(C)(C1=O)C(c1ccccc1)=C2c1ccccc1` (stereo not drawn) [Compound 12, (3-(1,4-dimethyl-7-oxo-5,6-diphenyl-2-(phenylselanyl)bicyclo [2.2.1]hept-5-ene-2-carboxamido)propyl)triphenylphosphonium] the “cytotoxicity against H9C2 cells” value (H9C2 cells [6]; 5 μM, 24 h of incubation) was “showed toxicity”, the “stability in the absence of ROS” value ([7]; 10% ACN in PBS (pH 7.4), 37° C., 48 hours) was “very stable” and the cell viability (Hela cells [1]; Hela cells, 2 μM Dox in combination with 12 (2.5 μM)) was “around 20%”. For the same molecule, the “synergistic effects with Dox in killing Hela cells” value (Hela cells [1]; Hela cells) was “synergistically” and the “cell viability, compound only” value (Hela cells [1]; Hela cells, without Dox (0-μM group)) was “no decrease in cell viability was observed”.
For `CC(=O)OC(OC(C)=O)C1C(S(=O)(=O)c2ccccc2)[C@]2(C)C(=O)[C@]1(C)C(c1ccccc1)=C2c1ccccc1` (stereo partly drawn) [Compound 24a, ((1S,4S)-1,4-Dimethyl-7-oxo-5,6-diphenyl-3-(phenylsulfonyl)bicyclo [2.2.1]hept-5-en-2-yl)methylene diacetate], the “time to total consumption of prodrug (to form compound 23)” value (porcine liver esterase; porcine liver esterase (3 U/mL), 5% of DMSO in PBS (pH 7.4), 37° C.) was no more than 2 min.
For `CC(C)(C)C(=O)OC(OC(=O)C(C)(C)C)C1C(S(=O)(=O)c2ccccc2)[C@]2(C)C(=O)[C@]1(C)C(c1ccccc1)=C2c1ccccc1` (stereo partly drawn) [Compound 24d, ((1S,4S)-1,4-Dimethyl-7-oxo-5,6-diphenyl-3-(phenylsulfonyl)bicyclo [2.2.1]hept-5-en-2-yl)methylene bis(2,2-dimethylpropanoate)], the esterase-mediated hydrolysis (porcine liver esterase; in the presence of PLE, after 24 h of incubation) was “no hydrolysis was observed”.
With `CCCCCSC1C(C=O)C2(C)C(=O)C1(C)C(c1ccccc1)=C2c1ccccc1` (stereo not drawn) [Compound 38] the half-life at 20 µM ([8]; 20% DMSO in PBS with H2O2 (270 µM), H2O2 (270 μM)) was roughly 90 min and the half-life at 20 µM ([8]; 20% DMSO in PBS, without H2O2) was roughly 1440 min.
For `COc1cccc2c1C(=O)c1c(O)c3c(c(O)c1C2=O)C[C@@](O)(C(=O)CO)C[C@@H]3O[C@H]1C[C@H](N)[C@H](O)[C@H](C)O1` [Dox, doxorubicin, reference compound], the viability at 2 µM (Hela cells [1]; Homo sapiens, HeLa, read-out: cell viability) was roughly 80%.
